Experimental data as given in US20250282830A1, “ANTI-VIRAL PEPTIDE COMPOSITIONS AND METHODS TO IMPROVE BIOLOGICAL ACTIVITY THEREOF” (priority 2021, published 2025).
No end group written: not given here.

Columns and labels:
[1] = Time-lapse fluorescence microscopy imaging of peptide-induced vesicle rupture
Description: Highly parallel measurements of peptide-induced liposome rupture were conducted by time-lapsed epifluorescence microscopy imaging. An Eclipse Ti-E inverted microscope (Nikon) with a high-pressure mercury lamp, a CFI Plan Apochromat TIRF×60 oil-immersion objective (NA 1.49; Nikon) and an Andor iXon3 897 EMCCD camera (Andor Technology), was utilized for measurements. The samples were illuminated with a mercury lamp (Intenslight C-HGFIE) using a TRITC filter set. Briefly, glass coverslips were assembled into a microfluidic flow cell, and coated with a thin layer of PLL-g-PEG(-biotin), followed by tethering of 0.025 μg ml^−1 liposomes via biotin-neutravidin coupling. Peptide was then added at a volumetric rate of 100 μl min^−1, and micrographs were recorded every 5-30 s depending on the particular experiment. The initial time was defined by when the peptide solution entered the channel inlet. Data processing and analysis were conducted using ImageJ (National Institutes of Health) and Python(x,y) software packages. The diameter of individual liposomes was estimated based on fluorescence intensity values. […]
Using time-lapse fluorescence microscopy imaging, we further investigated the interactions of different versions of Peptides 2 and 4 with tethered vesicles at the single-vesicle level and saw different degrees of vesicle rupture in terms of total extent and speed (FIG. 14).

[2] = test system: DENV-4; assay: Plaque reduction neutralization assay, DENV-4; assay type: cell-based, Dengue virus serotype 4; conditions: Vero cells; virus pre-incubated with peptide 1 h at 37° C.; read-out: DENV-4 PRNT50
Description: (§1) Vero cells were seeded at 1×10^5 cells per well and incubated overnight. Twofold serial dilutions of peptide were incubated with 200-300 p.f.u. of virus for 1 h at 37° C. Cells were infected with the virus-peptide mixture for 1 h at 37° C. The inoculum was removed and 0.8% (wt/vol) methylcellulose in medium supplemented with 1% FBS was added. After 3-5 days incubation, plates were fixed and analysed for plaques by immunostaining (DENV). For immunostaining, the cells were fixed, followed by incubation with 4G2, a mouse anti-DENV E protein monoclonal antibody (1:2,000 dilution), for 16-20 h. After addition of a secondary antibody, goat anti-mouse IgG (H+L)-HRP conjugate (1:2,000 dilution), the TrueBlue peroxidase substrate (KPL) was added and the optical density was measured at a wavelength of 450 nm. For crystal violet staining, cells were fixed with fixing solution (5% glutaric dialdehyde in Dulbecco's PBS) followed by staining with 0.1% crystal violet in fixing solution. The IC50 value was calculated by comparing the relative number of plaques in peptide-treated samples to virus-only samples using a four-parameter logistic curve fit.

[3] = test system: DENV-3; assay: Plaque reduction neutralization assay, DENV-3; assay type: cell-based, Dengue virus serotype 3; conditions: Vero cells; virus pre-incubated with peptide 1 h at 37° C.; read-out: DENV-3 PRNT50
Description: as §1

[4] = test system: DENV-2; assay: Plaque reduction neutralization assay, DENV-2; assay type: cell-based, Dengue virus serotype 2; conditions: Vero cells; virus pre-incubated with peptide 1 h at 37° C.; read-out: DENV-2 PRNT50
Description: as §1

[5] = test system: DENV-1; assay: Plaque reduction neutralization assay, DENV-1; assay type: cell-based, Dengue virus serotype 1; conditions: Vero cells; virus pre-incubated with peptide 1 h at 37° C.; read-out: DENV-1 PRNT50
Description: as §1

| Sequence | Vesicle rupture time, calcein (Cal) dye release ([1]; 100 nM peptide) [min] | Vesicle rupture time, rhodamine (Rh) dye release ([1]; 100 nM peptide) [min] | Vesicle rupture time, calcein (Cal) dye release ([1]; 1000 nM peptide) [min] | Vesicle rupture time, rhodamine (Rh) dye release ([1]; 1000 nM peptide) [min] | IC50 [2] [nM] | IC50 [3] [nM] | IC50 [4] [nM] | IC50 [5] [nM] | Dependence of vesicle rupture on vesicle size (membrane-curvature sensing), single-vesicle analysis ([1]; small and large tethered vesicles) |
| --- | --- | --- | --- | --- | --- | --- | --- | --- | --- |
| AESWLWEVWDWVLHVLSDFKTCLKAKF (Synthetic_Anti-viral peptide derived from hepatitis C virus NS5A protein) [Peptide 10] | 2.38 ± 0.05 | 10.09 ± 0.10 | 2.06 ± 0.02 | 2.09 ± 0.05 |  |  |  |  |  |
| AESWLWEVWDWVLHVLSDFKTCLKAKF [Peptide N10N] |  |  |  |  | 720 | 259 | 936 | 201 |  |
| AESWLWEVWDWVLHVLSDFKTCLKAKF [Peptide N100] |  |  |  |  | 1150 | 1110 | 362 | 194 |  |
| AESWLWEVWDWVLHVLSDFKTCLKAKF [Peptide O100] |  |  |  |  | 567 | 316 | 396 | 60.3 |  |
| DGNWLYDIWNWVCTVLADFKLWLGAKI (Synthetic_Anti-viral peptide derived from hepatitis C virus NS5A protein) [Peptide 9] | 4.22 ± 0.17 | 6.50 ± 0.07 | 1.41 ± 0.03 | 1.87 ± 0.014 |  |  |  |  |  |
| DGNWLYDIWNWVCTVLADFKLWLGAKI [Peptide N9N] |  |  |  |  | 80.2 | 476 | 550 | 96.9 |  |
| DGNWLYDIWNWVCTVLADFKLWLGAKI [Peptide N9O] |  |  |  |  | 240 | 262 | 185 | 139 |  |
| DGNWLYDIWNWVCTVLADFKLWLGAKI [Peptide O9O] |  |  |  |  | 139 | 119 | 192 | 50 |  |
| GDDWLHDIWDWVCIVLSDFKTWLSAKI (Synthetic_Anti-viral peptide derived from hepatitis C virus NS5A protein) [Peptide 8] | 2.49 ± 0.06 | 3.28 ± 0.08 | 1.70 ± 0.02 | 1.78 ± 0.02 |  |  |  |  |  |
| GDDWLHDIWDWVCIVLSDFKTWLSAKI [Peptide N8N] |  |  |  |  | 194 | 271 | 253 | 97.4 |  |
| GDDWLHDIWDWVCIVLSDFKTWLSAKI [Peptide N8O] |  |  |  |  | 343 | 648 | 257 | 224 |  |
| GDDWLHDIWDWVCIVLSDFKTWLSAKI [Peptide O8O] |  |  |  |  | 709 | 444 | 188 | 69.2 |  |
| GSTWLRDIWDWVCTVLSDFRVWLKSKL (Synthetic_Anti-viral peptide derived from hepatitis C virus NS5A protein) [Peptide 11] | 4.15 ± 0.04 | 6.00 ± 0.13 | 4.67 ± 0.08 | 4.91 ± 0.38 |  |  |  |  |  |
| GSTWLRDIWDWVCTVLSDFRVWLKSKL [Peptide N11N] |  |  |  |  | 306 | 289 | 924 | 591 |  |
| GSTWLRDIWDWVCTVLSDFRVWLKSKL [Peptide N11O] |  |  |  |  | 276 | 947 | 280 | 131 |  |
| GSTWLRDIWDWVCTVLSDFRVWLKSKL [Peptide O110] |  |  |  |  | 810 | 490 | 1160 | 258 |  |
| SDDWLRIIWDWVCSVVSDFKAWLSAKI (Synthetic_Anti-viral peptide derived from hepatitis C virus NS5A protein) [Peptide 5] | 4.69 ± 0.22 | 15.25 ± 0.43 | 2.53 ± 0.10 | 11.20 ± 0.17 |  |  |  |  |  |
| SDDWLRIIWDWVCSVVSDFKAWLSAKI [Peptide N5N] |  |  |  |  | 338 | 1380 | 545 | 236 |  |

| Sequence | Vesicle rupture time, calcein (Cal) dye release ([1]; 100 nM peptide) [min] | Vesicle rupture time, rhodamine (Rh) dye release ([1]; 100 nM peptide) [min] | Vesicle rupture time, calcein (Cal) dye release ([1]; 1000 nM peptide) [min] | Vesicle rupture time, rhodamine (Rh) dye release ([1]; 1000 nM peptide) [min] | IC50 [2] [nM] | IC50 [3] [nM] | IC50 [4] [nM] | IC50 [5] [nM] | Dependence of vesicle rupture on vesicle size (membrane-curvature sensing), single-vesicle analysis ([1]; small and large tethered vesicles) |
| --- | --- | --- | --- | --- | --- | --- | --- | --- | --- |
| SDDWLRIIWDWVCSVVSDFKAWLSAKI [Peptide N5O] |  |  |  |  | 649 | 1590 | 838 | 235 |  |
| SDDWLRIIWDWVCSVVSDFKAWLSAKI [Peptide O5O] |  |  |  |  | 278 | 176 | 164 | 37.2 |  |
| SDDWLRTIWDWVCSVLADFKAWLSAKI (Synthetic_Anti-viral peptide derived from hepatitis C virus NS5A protein) [Peptide 7] | 2.41 ± 0.06 | 5.50 ± 0.11 | 1.47 ± 0.01 | 2.13 ± 0.00 |  |  |  |  |  |
| SDDWLRTIWDWVCSVLADFKAWLSAKI [Peptide N7N] |  |  |  |  | 242 | 1140 | 562 | 171 |  |
| SDDWLRTIWDWVCSVLADFKAWLSAKI [Peptide N7O] |  |  |  |  | 198 | 2380 | 1880 | 723 |  |
| SDDWLRTIWDWVCSVLADFKAWLSAKI [Peptide O7O] |  |  |  |  | 433 | 213 | 299 | 36 |  |
| SGDWLRIIWDWVCSVVSDFKTWLSAKI (Synthetic_Anti-viral peptide derived from hepatitis C virus NS5A protein) [Peptide 6] | 2.46 ± 0.02 | 4.75 ± 0.06 | 1.57 ± 0.03 | 2.74 ± 0.03 |  |  |  |  |  |
| SGDWLRIIWDWVCSVVSDFKTWLSAKI [Peptide N6N] |  |  |  |  | 165 | 2780 | 536 | 162 |  |
| SGDWLRIIWDWVCSVVSDFKTWLSAKI [Peptide N6O] |  |  |  |  | 273 | 1470 | 554 | 218 |  |
| SGDWLRIIWDWVCSVVSDFKTWLSAKI [Peptide O6O] |  |  |  |  | 273 | 334 | 412 | 68 |  |
| SGSWLRDIWDWICEVLSDFKTWLKAKL (Synthetic_Anti-viral peptide derived from hepatitis C virus NS5A protein) [Peptide 1] | 5.95 ± 0.03 | 10.58 ± 0.33 | 4.67 ± 0.32 | 6.13 ± 0.09 |  |  |  |  |  |
| SGSWLRDIWDWICEVLSDFKTWLKAKL [Peptide N1N] |  |  |  |  | 1100 | 3230 | 402 | 218 |  |
| SGSWLRDIWDWICEVLSDFKTWLKAKL [Peptide N1O] |  |  |  |  | 294 | 974 | 363 | 219 |  |
| SGSWLRDIWEWVCSILTDFKNWLSAKL (Synthetic_Anti-viral peptide derived from hepatitis C virus NS5A protein) [Peptide 4] | 6.50 ± 0.3 | 21.13 ± 0.38 | 3.71 ± 0.07 | 9.51 ± 0.09 |  |  |  |  |  |
| SGSWLRDVWDWICTVLTDFKTWLQSKL [O2O] (not fully specified) [Peptide O2O, Peptide 2 with O and O terminal endings] |  |  |  |  |  |  |  |  | have membrane-curvature sensing mechanisms |
| SGSWLRDVWDWICTVLTDFKTWLQSKL [Peptide 2] | 5.54 ± 0.30 | 8.69 ± 0.08 | 1.91 ± 0.04 | 3.13 ± 0.12 |  |  |  |  |  |
| SGSWLRDVWDWVCTILTDFKNWLTSKL [Peptide 3] | 4.53 ± 0.17 | 8.41 ± 0.08 | 1.97 ± 0.11 | 2.99 ± 0.03 |  |  |  |  |  |
